# Laboratory results as given in US20220396604A1, “COMPOSITIONS COMPRISING MODIFIED SMARCB1 AND USES THEREOF” (Dana-Farber Cancer Institute, Inc., priority 2019, published 2022).
# System: mononucleosomes
# Test: LANA peptide competition
# Assay type: binding
# Experimental: The LANA peptide competition was set up in a similar manner as the peptide pull-down experiments with the following exceptions: SMARCB1-CC (aa 351-385) biotin-labeled peptides at 10 μM in EB150 were bound to Streptavidin Dynabeads® (Pierce™ Streptavidin Magnetic Beads, Thermo Scientific) in parallel to […] of mononucleosomes incubated with LANA peptide (KE Biochem) at varying concentrations ranging from 0-30 μM overnight at 4° C. Beads were washed 3 times in EB150, and resuspended with the mononucleosome/LANA peptide solutions. The suspension was rotated for 3-5 hours at 4° C. The beads were washed 3-5 times in EB150, and eluted in Sample Buffer (2×LDS with 200 mM DTT) to load onto […] Tricine gels.
sequence,measurement,setting,value
MAPPGMRLRSGRSTGAPLTRGSC [LANA Peptide],antagonism of SMARCB1 CC domain-nucleosome interaction in competition experiments,,only partially antagonized
same,changes in SMARCB1 C-terminal domain peptide-nucleosome binding in LANA peptide competition,"1-20 uM concentration gradient, visualization of H3",minimal changes
